Target: T1, human full-length MKNK1 (Homo sapiens, UniProt Q9BUB5, T385D)
T1 construct: purchased Carna Biosciences 02-145; host or cells: insect cells (baculovirus expression system)
Test: MKNK1 kinase high ATP assay (TR-FRET)
Format: biochemical
Settings: high ATP (2 mM final), 15 min preincubation with enzyme, GST-MKNK1 (T344D)
Description: MKNK1-inhibitory activity at high ATP of compounds of the present invention after their preincubation with MKNK1 was quantified employing the TR-FRET-based MKNK1 high ATP assay as described in the following paragraphs.
A recombinant fusion protein of Glutathione-S-Transferase (GST, N-terminally) and human full-length MKNK1 (amino acids 1-424 and T344D of accession number BAA 19885.1), expressed in insect cells using baculovirus expression system and purified via glutathione sepharose affinity chromatography, was purchased from Carna Biosciences (product no 02-145) and used as enzyme. As substrate for the kinase reaction the biotinylated peptide biotin-Ahx-IKKRKLTRRKSLKG (C-terminus in amide form) was used, which can be purchased e.g. from the company Biosyntan (Berlin-Buch, Germany).
For the assay 50 nL of a 100 fold concentrated solution of the test compound in DMSO was pipetted into a black low volume 384 well microtiter plate (Greiner Bio-One, Frickenhausen, Germany), 2 μL of a solution of MKNK1 in aqueous assay buffer [50 mM HEPES pH 7.5, 5 mM MgCl2, 1.0 mM dithiothreitol, 0.005% (v/v) Nonidet-P40 (Sigma)] was added and the mixture was incubated for 15 min at 22° C. to allow pre-binding of the test compounds to the enzyme before the start of the kinase reaction. Then the kinase reaction was started by the addition of 3 μL of a solution of adenosine-tri-phosphate (ATP, 3.3 mM=> final conc. in the 5 μL assay volume is 2 mM) and substrate (0.1 μM=> final conc. in the 5 μL assay volume is 0.06 μM) in assay buffer and the resulting mixture was incubated for a reaction time of 30 min at 22° C. The concentration of MKNK1 was adjusted depending of the activity of the enzyme lot and was chosen appropriate to have the assay in the linear range, typical concentrations were in the range of 0.003 μg/mL. The reaction was stopped by the addition of 5 μL of a solution of TR-FRET detection reagents (5 nM streptavidine-XL665 [Cisbio Bioassays, Codolet, France] and 1 nM anti-ribosomal protein S6 (pSer236)-antibody from Invitrogen [#44921G] and 1 nM LANCE EU-W1024 labeled ProteinG [Perkin-Elmer, product no. AD0071]) in an aqueous EDTA-solution (100 mM EDTA, 0.1% (w/v) bovine serum albumin in 50 mM HEPES pH 7.5).
The resulting mixture was incubated for 1 h at 22° C. to allow the formation of complex between the phosphorylated biotinylated peptide and the detection reagents. Subsequently the amount of phosphorylated substrate was evaluated by measurement of the resonance energy transfer from the Eu-chelate to the streptavidine-XL. Therefore, the fluorescence emissions at 620 nm and 665 nm after excitation at 350 nm were measured in a TR-FRET reader, e.g. a Rubystar (BMG Labtechnologies, Offenburg, Germany) or a Viewlux (Perkin-Elmer). The ratio of the emissions at 665 nm and at […] was taken as the measure for the amount of phosphorylated substrate. The data were normalised (enzyme reaction without inhibitor=0% inhibition, all other assay components but no enzyme=100% inhibition).

T1 sequence (Q9BUB5 1-424 isoform Q9BUB5-2 T344D): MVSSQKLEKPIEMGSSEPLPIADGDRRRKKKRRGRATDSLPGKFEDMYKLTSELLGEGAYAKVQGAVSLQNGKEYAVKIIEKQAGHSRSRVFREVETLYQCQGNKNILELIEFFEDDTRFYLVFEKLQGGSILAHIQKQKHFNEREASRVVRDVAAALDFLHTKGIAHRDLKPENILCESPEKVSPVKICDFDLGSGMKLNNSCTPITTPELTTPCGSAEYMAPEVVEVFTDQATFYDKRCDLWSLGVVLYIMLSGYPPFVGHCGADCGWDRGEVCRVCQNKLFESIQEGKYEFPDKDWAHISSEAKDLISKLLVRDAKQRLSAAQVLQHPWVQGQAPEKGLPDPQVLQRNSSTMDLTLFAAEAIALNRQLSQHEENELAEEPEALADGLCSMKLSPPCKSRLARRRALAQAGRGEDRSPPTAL

SMILES | IC50 [nM]
Cc1c[nH]c2ncnc(Nc3cnc4[nH]ncc4c3)c12 [Example 3, N-(5-Methyl-7H-pyrrolo[2,3-d]pyrimidin-4-yl)-1H-pyrazolo[3,4-b]pyridin-5-amine] | 25.9
COc1nc2[nH]ncc2cc1Nc1ncnc2[nH]c(C(=O)N3CCOC[C@H]3C)c(Br)c12 [Example 66] | 8.3
OCc1c[nH]c2ncnc(Nc3cnc4[nH]ncc4c3)c12 [Example 17, [4-(1H-Pyrazolo[3,4-b]pyridin-5-ylamino)-7H-pyrrolo[2,3-d]pyrimidin-5-yl]methanol] | 32.2
CN(C)C(=O)[C@H]1CCc2c(sc3ncnc(Nc4cc5cn[nH]c5nc4O)c23)C1 [Example 54, (7S)-4-[(6-Hydroxy-1H-pyrazolo[3,4-b]pyridin-5-yl)amino]-N,N-dimethyl-5,6,7,8-tetrahydro[1]benzothieno[2,3-d]pyrimidine-7-carboxamide] | 6.9
COc1nc2[nH]ncc2cc1Nc1ncnc2sc3c(c12)CC[C@H](C(=O)N1CCN(C)CC1)C3 [Example 42] | 2.1
O=C(c1[nH]c2ncnc(Nc3cnc4[nH]ncc4c3)c2c1Br)N1CCCCC1 [Example 61, [5-Bromo-4-(1H-pyrazolo[3,4-b]pyridin-5-ylamino)-7H-pyrrolo[2,3-d]pyrimidin-6-yl](piperidin-1-yl)methanone] | 120
CCc1[nH]c2ncnc(Nc3cc4cn[nH]c4cn3)c2c1C [Example 8, N-(6-Ethyl-5-methyl-7H-pyrrolo[2,3-d]pyrimidin-4-yl)-1H-pyrazolo[3,4-c]pyridin-5-amine] | 11.5
CN(C)CCNC(=O)c1cc2c(Nc3cc4cn[nH]c4cn3)ncnc2[nH]1 [Example 22, N-[2-(Dimethylamino)ethyl]-4-(1H-pyrazolo[3,4-c]pyridin-5-ylamino)-7H-pyrrolo[2,3-d]pyrimidine-6-carboxamide] | 5.4
CN1CCN(C(=O)C2CCc3c(sc4ncnc(Nc5cc6cn[nH]c6cn5)c34)C2)CC1 (racemic) [Example 26, (RS)-(4-Methylpiperazin-1-yl)[4-(1H-pyrazolo[3,4-c]pyridin-5-ylamino)-5,6,7,8-tetrahydro[1]benzothieno[2,3-d]pyrimidin-7-yl]methanone] | 38.2
CCCN(CCOC)C(=O)[C@H]1CCc2c(sc3ncnc(Nc4cc5cn[nH]c5nc4OC)c23)C1 [Example 49, (7S)—N-(2-Methoxyethyl)-4-[(6-methoxy-1H-pyrazolo[3,4-b]pyridin-5-yl)amino]-N-propyl-5,6,7,8-tetrahydro[1]benzothieno[2,3-d]pyrimidine-7-carboxamide] | 0.3
CN1CCN(C(=O)C2CCc3[nH]c4ncnc(Nc5cnc6[nH]ncc6c5)c4c3C2)CC1 (racemic) [Example 32, (RS)-(4-Methylpiperazin-1-yl)[4-(1H-pyrazolo[3,4-b]pyridin-5-ylamino)-6,7,8,9-tetrahydro-5H-pyrimido[4,5-b]indol-6-yl]methanone] | 49
CC(C)NC(=O)C1CCc2[nH]c3ncnc(Nc4cnc5[nH]ncc5c4)c3c2C1 (racemic) [Example 29, (RS)—N-(Propan-2-yl)-4-(1H-pyrazolo[3,4-b]pyridin-5-ylamino)-6,7,8,9-tetrahydro-5H-pyrimido[4,5-b]indole-6-carboxamide] | 24.7
CN(CCC(F)(F)F)C(=O)[C@H]1CCc2c(sc3ncnc(Nc4cc5cn[nH]c5cn4)c23)C1 [Example 48, (7S)—N-Methyl-4-(1H-pyrazolo[3,4-c]pyridin-5-ylamino)-N-(3,3,3-trifluoropropyl)-5,6,7,8-tetrahydro[1]benzothieno[2,3-d]pyrimidine-7-carboxamide] | 6.2

Continued, values first:

IC50 [nM] | SMILES
3.7 | CN(C)[C@H]1CCN(C(=O)[C@H]2CCc3c(sc4ncnc(Nc5cnc6[nH]ncc6c5)c34)C2)C1 [Example 100, [(3S)-3-(Dimethylamino)pyrrolidin-1-yl][(7S)-4-(1H-pyrazolo[3,4-b]pyridin-5-ylamino)-5,6,7,8-tetrahydro[1]benzothieno[2,3-d]pyrimidin-7-yl]methanone]
4290 | CN(C)C(=O)CCN(C)C(=O)c1nc2c(Nc3cnc4[nH]ncc4c3)ncnc2s1 [Example 129, N-[3-(Dimethylamino)-3-oxopropyl]-N-methyl-7-(1H-pyrazolo[3,4-b]pyridin-5-ylamino)[1,3]thiazolo[5,4-d]pyrimidine-2-carboxamide]
0.7 | COc1nc2[nH]ncc2cc1Nc1ncnc2sc3c(c12)CC[C@H](C(=O)N1CC2(COC2)C1)C3 [Example 109]
4.5 | CN(C)[C@H]1CCN(C(=O)[C@H]2CCc3c(sc4ncnc(Nc5cc6cn[nH]c6cn5)c34)C2)C1 [Example 85, [(3S)-3-(Dimethylamino)pyrrolidin-1-yl][(7S)-4-(1H-pyrazolo[3,4-c]pyridin-5-ylamino)-5,6,7,8-tetrahydro[1]benzothieno[2,3-d]pyrimidin-7-yl]methanone]
10.8 | O=C(c1[nH]c2ncnc(Nc3cc4cn[nH]c4nc3O)c2c1Br)N1CCCCC1 [Example 134]
23.9 | CC(C)NC(=O)[C@H]1CCc2c(sc3ncnc(Nc4cc5cn[nH]c5cn4)c23)C1 [Example 80, (7S)—N-(Propan-2-yl)-4-(1H-pyrazolo[3,4-c]pyridin-5-ylamino)-5,6,7,8-tetrahydro[1]benzothieno[2,3-d]pyrimidine-7-carboxamide]
3.6 | CN(C)[C@@H]1CCN(C(=O)[C@H]2CCc3c(sc4ncnc(Nc5cc6cn[nH]c6cn5)c34)C2)C1 [Example 84, [(3R)-3-(Dimethylamino)pyrrolidin-1-yl][(7S)-4-(1H-pyrazolo[3,4-c]pyridin-5-ylamino)-5,6,7,8-tetrahydro[1]benzothieno[2,3-d]pyrimidin-7-yl]methanone]
1.3 | COc1nc2[nH]ncc2cc1Nc1ncnc2sc3c(c12)CC[C@H](C(=O)N1CC[C@H](N(C)C)C1)C3 [Example 111, [(3S)-3-(Dimethylamino)pyrrolidin-1-yl]{(7S)-4-[(6-methoxy-1H-pyrazolo[3,4-b]pyridin-5-yl)amino]-5,6,7,8-tetrahydro[1]benzothieno[2,3-d]pyrimidin-7-yl}methanone]
3.3 | CCCN(C)C(=O)[C@H]1CCc2c(sc3ncnc(Nc4cc5cn[nH]c5nc4O)c23)C1 [Example 113, (7S)-4-[(6-Hydroxy-1H-pyrazolo[3,4-b]pyridin-5-yl)amino]-N-methyl-N-propyl-5,6,7,8-tetrahydro[1]benzothieno[2,3-d]pyrimidine-7-carboxamide]
8.2 | CN(CCC(F)(F)F)C(=O)[C@H]1CCc2c(sc3ncnc(Nc4cnc5[nH]ncc5c4)c23)C1 [Example 94, (7S)—N-Methyl-4-(1H-pyrazolo[3,4-b]pyridin-5-ylamino)-N-(3,3,3-trifluoropropyl)-5,6,7,8-tetrahydro[1]benzothieno[2,3-d]pyrimidine-7-carboxamide]
15.4 | CCN(C)C(=O)[C@H]1CCc2c(sc3ncnc(Nc4cnc5[nH]ncc5c4)c23)C1 [Example 92, (7S)—N-Ethyl-N-methyl-4-(1H-pyrazolo[3,4-b]pyridin-5-ylamino)-5,6,7,8-tetrahydro[1]benzothieno[2,3-d]pyrimidine-7-carboxamide]
0.4 | COc1nc2[nH]ncc2cc1Nc1ncnc2sc3c(c12)CC[C@H](C(=O)N1CC[C@@H](N(C)C)C1)C3 [Example 110, [(3R)-3-(Dimethylamino)pyrrolidin-1-yl]{(7S)-4-[(6-methoxy-1H-pyrazolo[3,4-b]pyridin-5-yl)amino]-5,6,7,8-tetrahydro[1]benzothieno[2,3-d]pyrimidin-7-yl}methanone]
114 | COc1nc2[nH]ncc2cc1Nc1ncnc2sc(C(=O)N(C)CCC(=O)N(C)C)nc12 [Example 138, N-[3-(Dimethylamino)-3-oxopropyl]-7-[(6-methoxy-1H-pyrazolo[3,4-b]pyridin-5-yl)amino]-N-methyl[1,3]thiazolo[5,4-d]pyrimidine-2-carboxamide]
71.5 | CN(C)C(=O)CNC(=O)c1cc2c(Nc3cc4cn[nH]c4cn3)ncnc2[nH]1 [Example 76, N-[2-(Dimethylamino)-2-oxoethyl]-4-(1H-pyrazolo[3,4-c]pyridin-5-ylamino)-7H-pyrrolo[2,3-d]pyrimidine-6-carboxamide]
